Source: patent US10759785B2, “Compounds” (ENTERPRISE THERAPEUTICS LIMITED, priority 2016, dated 2020)
Structures can show the parent of a compound that is named as a salt.

What was measured:
Type in all cases: in vitro ADME
[1] = Microsomal stability (human microsomes); settings: 0.5 mg/mL protein, 1 mM NADPH, 37° C.; for half-life at 1 μM: pH 7.4, 1 μM test compound, read-out: Averages. Mic Half Life Human
Experimental: (§1) Example 28—Microsomal Stability
(§2) Microsomes (rat and human) were obtained from Bioreclamation. Test compound stock solutions in DMSO (10 mM) were diluted with DMSO to 2 mM. Further dilution was completed to achieve a 100 μM stock (final concentrations; 91.5% Acetonitrile: 8.5% DMSO). Final test compound concentration in incubation was 1 μM (<0.1% DMSO). The following probe substrates were used: verapamil, propranolol, metoprolol and phenacetin (rat) at a final incubation concentration of 1 μM. Assay buffer—Solution 1: 17.4 g potassium phosphate dibasic anhydrous (K2HPO4, 0.1 M) dissolved in 1 L deionised water. Solution 2: 13.6 g potassium phosphate monobasic anhydrous (KH2PO4, 0.1 M) dissolved in 1 L deionised water. Potassium phosphate solutions 1 and 2 were combined to form a pH 7.42 solution at 37° C. pH 7.4 with 2 mM magnesium chloride. NADPH (10 mM)—diluted in deionised water. Frozen microsomes were thawed at 37° C. Microsomes were diluted in assay buffer to achieve a final protein concentration of 0.5 mg/mL and 1 mM NADPH. The following procedure was completed on a Perkin Elmer Janus robotic platform in 96 well format: The microsomal incubation plate was transferred to a heater shaker at 300 rpm and solution heated to 37° C. for 10 min pre-warm. A no co-factor control at 0 and 45 min and one replicates of each test compound was included in every assay. Microsomes were incubated at 37° C., on a shaker set at 300 rpm throughout the assay. At each timepoint (0, 5, 15, 30, 45 min) 50 μL of sample was removed from the 96-well and added to 200 μL of quench solution (acetonitrile containing 0.1% formic acid and imipramine/labetalol, 200 nM). Samples were diluted 1:1 with water using the Janus Robot and analysed by LC-MS/MS.

[2] = Microsomal stability (rat microsomes); settings: pH 7.4, 1 μM test compound, 0.5 mg/mL protein, 1 mM NADPH, 37° C., read-out: Averages. Mic Half Life Rat
Experimental: as §1, §2

[3] = Hepatic stability (human cryopreserved hepatocytes); settings: 1×10^6 cells/mL, 37° C.; for half-life at 1 μM: cryopreserved hepatocytes, pH 7.4, 1 μM test compound, read-out: Averages. Hep Half Life Human
Experimental: (§3) Example 29—Hepatic Stability
(§4) Cryopreserved hepatocytes (rat and human) were obtained from Bioreclamation. Test compound stock solutions in DMSO (10 mM) were diluted with DMSO to 4 mM. Further dilution was completed to achieve a 100 μM stock (5 μL of 4 mM in 195 μL of 50:50 DMSO:hepatocyte buffer). Final test compound concentration in incubation was 1 μM. The following probe substrates were used: testosterone and carbamazepine at a final incubation concentration of 1 μM. Hepatocyte buffer was prepared (Williams E media containing phenol red and Glutamax™, 15 mM HEPES, warmed to 37° C., pH7.4 with NaOH). Cells were removed from liquid nitrogen, thawed in a waterbath, decanted into 50 mL of pre-warmed Cryopreserved Hepatocyte Recovery Media (LifeTechnologies) and centrifuged. Supernatant fraction was removed, cells were re-suspended in hepatocyte buffer and counted by trypan blue exclusion. Cell viability of >80% was required for all assays. Cells were re-suspended to 1×10^6/mL and 198 μL cell suspension added to each 96-well. 2 μL of 100 μM compound stock solution was added to relevant wells to initiate the incubation. A no cell control and two replicates of each test compound was included in every assay. Cells were incubated at 37° C., on a shaker set at 300 rpm. At each timepoint (0, 15, 30, 45, 60, 90 min) 20 μL of sample was removed from the 96-well and added to 80 μL of quench solution (acetonitrile containing 0.1% formic acid and imipramine/labetalol, 200 nM). Samples were diluted 1:1 with water using the Janus Robot and analysed by LC-MS/MS.

[4] = Hepatic stability (rat cryopreserved hepatocytes); settings: pH 7.4, 1 μM test compound, 1×10^6 cells/mL, 37° C., read-out: Averages. Hep Half Life Rat
Experimental: as §3, §4

| SMILES | half-life at 1 μM [1] | half-life at 1 μM [2] | half-life at 1 μM [3] | half-life at 1 μM [4] | Averages. Mic Half Life Human ([1]; 1 μM test compound) | Averages. Hep Half Life Human ([3]; 1 μM test compound) |
| --- | --- | --- | --- | --- | --- | --- |
| CCn1c(CNC(=O)c2nc(Br)cnc2N)[n+](CC)c2ccc(-c3cnn(C4CCN(C[C@H](O)[C@@H](O)[C@H](O)[C@H](O)CO)CC4)c3)cc21.O=CO.[Cl-] [Example 23, 2-{[(3-amino-6-bromopyrazin-2-yl)formamido]methyl}-1,3-diethyl-6-(1-{1-[(2S,3R,4R,5R)-2,3,4,5,6-pentahydroxyhexyl]piperidin-4-yl}-1H-pyrazol-4-yl)-1H-1,3-benzodiazol-3-ium formic acid chloride] | > 2.3 h | > 2.3 h | 1.2 h | 2.07 h |  |  |
| CCn1c(CNC(=O)c2nc(Br)cnc2N)[n+](CC)c2ccc(-c3cnn(C4CCN(C(=N)N)CC4)c3)cc21.O=CO.O=C[O-] [Example 22, 2-{[(3-amino-6-bromopyrazin-2-yl)formamido]methyl}-6-[1-(1-carbamimidoylpiperidin-4-yl)-1H-pyrazol-4-yl]-1,3-diethyl-1H-1,3-benzodiazol-3-ium formic acid formate] | > 2.3 h | > 2.3 h | 1.12 h | 1.5 h |  |  |
| CCn1c(CNC(=O)c2nc(Br)cnc2N)[n+](C)c2ccc(C(F)(F)F)cc21.[I-] [Example 13, 2-{[(3-amino-6-bromopyrazin-2-yl)formamido]methyl}-1-ethyl-3-methyl-6-(trifluoromethyl)-1H-1,3-benzodiazol-3-ium iodide] |  | 0.0833 h |  | 0.233 h | 2.3 h | 4 h |
| CCn1c(CNC(=O)c2nc(C)cnc2N)[n+](C)c2ccc(OC)cc21.[I-] [Example 7, 2-{[(3-amino-6-methylpyrazin-2-yl)formamido]methyl}-1-ethyl-6-methoxy-3-methyl-1H-1,3-benzodiazol-3-ium iodide] | 0.367 h | 0.117 h | 2.15 h | 0.267 h |  |  |
| CCn1c(CNC(=O)c2nc(Br)cnc2N)[n+](CC)c2ccc(C(=O)N[C@H]3CCOC3=O)cc21 [Example 18, 2-{[(3-amino-6-bromopyrazin-2-yl)formamido]methyl}-1,3-diethyl-6-{[(3S)-2-oxooxolan-3-yl]carbamoyl}-1H-1,3-benzodiazol-3-ium formate] | > 2.3 h | 1.02 h | 2.28 h | 0.767 h |  |  |
